Experimental data: PubChem BioAssay AID179 (DTP/NCI, 2004)
The source made the active and inactive calls.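 How the source made its calls: active means compounds giving half or more protection of infected cells from virus-caused growth loss, again on retest; inactive means the rest.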

Tested on: CEM cells HIV-1 protection, formazan growth assay
Assay: NCI AIDS Antiviral Assay
Details: for IC50: measured here: growth of uninfected CEM cells
Procedure, shortened: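 Five concentrations of each compound were applied to infected and uninfected human CEM cells. Protection from HIV-1 was judged from growth measured with a soluble formazan assay.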

Compound | EC50 | IC50 | outcome
CC1(C)CC2=NOS3=C2C(=NO3)C1c1ccccn1 (configuration not stated) | > 200 µM | 95.5 µM | 
Cc1cc(S(=O)(=O)Nc2nc(N)nc(N(C)C)n2)c(SCC(=O)O)cc1Cl | > 200 µM | > 200 µM | 
CCCCN(CCCC)c1c([N+](=O)[O-])c(=O)nc2ccccn12 | > 794 µM | 1.7 µM | 
COC(=O)[C@@]1(C)/C(=N/NS(=O)(=O)c2ccc(C)cc2)CCC[C@@H]1C | > 269 µM | 219 µM | 
Cn1c2c(c(=O)c3cc(O)ccc31)CC(O)C(C)(C)O2 (configuration not stated) | > 912 µM | 891 µM | 
NCCCC[C@H](NC(=O)[C@H](CS)NC(=O)[C@@H](N)Cc1cnc[nH]1)C(=O)N[C@H](Cc1ccc(O)cc1)C(=O)N[C@@H](Cc1c[nH]c2ccccc12)C(=O)N[C@@H](Cc1c[nH]c2ccccc12)C(N)=O | > 200 µM | > 200 µM | 
N#C/C(=C\c1ccc(Cl)cc1)c1nc(-c2cc3ccccc3oc2=O)cs1 | > 151 µM | > 151 µM | 
[Cl][Sn]([Cl])([c]1ccccc1)[c]1ccccc1 |  |  | inactive
O=S1(=O)OCCOS(=O)(=O)C1C1c2ccccc2-c2ccccc21 | > 200 µM | 30.9 µM | 
O=C1c2c(c3c4ccccc4n(CC4CO4)c3c3[nH]c4ccccc4c23)C(=O)N1Cc1ccccc1 (configuration not stated) |  |  | inactive
Cn1cnc2c(sc3nc4ccccc4n32)c1=N | > 200 µM | > 200 µM | 
Cn1cc2c(=O)n(OS(=O)(=O)c3ccccc3)c(=O)[nH]c2n1 | > 200 µM | > 200 µM | 
NNC(=O)c1ccccc1SSc1ccccc1C(=O)NN | 0.537 µM | 3.55 µM | 
Cc1ccc(/C=C2\CN(C)CC3C2=NN(c2ccccc2)C3c2ccc(C)cc2)cc1 (configuration not stated) | > 200 µM | > 200 µM | 
CN1NC(c2ccccc2)=C(C#N)C(=O)CC1c1cccs1 (configuration not stated) | > 200 µM | > 200 µM | 
O=C1C(c2ccc(Cl)cc2)=[N+]([O-])c2ccccc21 |  |  | inactive
CC(C)OP(=O)(OC(C)C)C(N(C)C)P(=O)(OC(C)C)OC(C)C.[Cl][Sn]([Cl])([Cl])[c]1ccccc1 |  |  | inactive
NNc1nc(Nc2ccccc2)nc(Nc2ccccc2)n1 | > 200 µM | 38 µM | 
COc1ccc(-c2[nH]c3ccccc3c2-c2ccc(OC)cc2)cc1 | > 200 µM | 12.9 µM | 
C/C(O)=C(\C=NC(=S)c1cccnc1)C(=O)Nc1ccccc1C | > 200 µM | > 200 µM | 
NC(S(=O)(=O)O)S(=O)(=O)O | > 200 µM | 91.2 µM | 
O=C1/C(=C/c2ccccc2)CN(C(=O)Oc2ccc(Cl)cc2)C/C1=C\c1ccccc1 |  |  | inactive
Cc1c(C(=O)NNc2ccccc2)n2c(=S)[nH]nc2c2ccccc12 | > 200 µM | 93.3 µM | 
O=C(O)/C(=C\c1cc2c(cc1[N+](=O)[O-])OCO2)c1cc2c(cc1Br)OCO2 | > 200 µM | 110 µM | 
NS(=O)(=O)c1cc2c(cc1Cl)NCNS2(=O)=O | > 832 µM | 437 µM | 
C#CCN1CCN(C(=S)N/N=C(\C)c2ccccn2)CC1 | > 2.24 µM | 0.0724 µM | 
CP1(=S)CC(Cl)=C2CCCCC21 (configuration not stated) |  |  | inactive
NC(=O)c1c([N+](=O)[O-])cc(C(F)(F)F)cc1[N+](=O)[O-] |  |  | inactive

Compound | EC50 | IC50 | outcome
N#Cc1ccccc1CSc1ncnc2nc[nH]c12 | 12.3 µM | 105 µM | 
O=c1[nH]c(=O)n(C2CC(F)(F)C(CO)O2)cc1COCC(F)(F)F (configuration not stated) | > 174 µM | > 174 µM | 
Cc1cc(C)n2c(nc3ccccc32)c1C#N | > 200 µM | 148 µM | 
Nc1cccc(N=Nc2c(S(=O)(=O)O)cc3cc(NC(=O)Nc4ccc5c(O)c(N=Nc6cccc(N)c6)c(S(=O)(=O)O)cc5c4)ccc3c2O)c1 | 13.5 µM | > 100 µM | 
COc1ccc(C(=O)C(C(=O)C(=O)NCCCNC(=O)C(=O)C(C(=O)c2ccc(OC)cc2)c2ccc(OC)cc2)c2ccc(OC)cc2)cc1 (configuration not stated) |  |  | inactive
FC(F)(F)c1cccc(COCCN2CCN(Cc3cccc(C(F)(F)F)c3)CC2)c1 | > 200 µM | 18.2 µM | 
Cc1nc(-n2nc(-c3ccccc3)cc2-c2ccccc2)sc1C(=O)CC(=O)C(=O)Nc1ccc(Cl)c(Cl)c1 | > 45.7 µM | > 45.7 µM | 
COC(=O)C1(C(=O)OC)C/C(C)=C(/C)SCCCS1 | > 200 µM | > 200 µM | 
CSCC1(O)CCCCC1 | > 200 µM | > 200 µM | 
CNC(=O)N1CN(c2ccccc2)C2(CCN(CCCC3(c4ccc(F)cc4)OCCO3)CC2)C1=O | > 200 µM | 38.9 µM | 
CCN1CCC2(CC1)OC(c1ccccc1)C(c1ccccc1)O2 (configuration not stated) | > 200 µM | 112 µM | 
CC(=O)N1OC(C)CC1Nc1ccc(Br)cc1 (configuration not stated) | > 200 µM | 25.1 µM | 
C=C(C)CCNCC/C=C\[Si](C)(C)C | > 1170 µM | > 1170 µM | 
Cc1ccc(NC(=O)c2cc(S(=O)(=O)n3cc[nH]c3=O)c(S)cc2Cl)cc1 | > 200 µM | > 200 µM | 
C=CCc1cccc(/C(O)=C/C(=O)/C=C/c2ccccc2Cl)c1O | > 200 µM | 35.5 µM | 
COc1ccc(OCC(=O)O)c2c1CCC(C)C2=O (configuration not stated) |  |  | inactive
COc1ccc(/C=C/C(=O)c2nc3ccccc3[nH]2)cc1 | > 200 µM | 3.98 µM | 
CSc1sc2ccccc2[s+]1 |  |  | inactive
[N-]=[N+]=NCC(CO)OCn1cc(Cc2cccc(OCc3ccccc3)c2)c(=O)[nH]c1=O (configuration not stated) |  |  | inactive
COc1ccc(OC)c2c1C(=O)C1CC1(Br)C2=O (configuration not stated) |  |  | inactive
C/C(=N\Nc1ccccc1)C(CN(C)C)C(c1ccccc1)c1c(O)c2ccccc2oc1=O (configuration not stated) | > 27.5 µM | > 27.5 µM | 
COc1cc2oc(=O)cc(C)c2cc1OC | > 200 µM | > 200 µM | 
Cc1cc(Br)ccc1N=Nc1c(C)noc1-c1ccccc1 |  |  | inactive
C[CH2][Sn]([CH2]C)([O]C(=O)c1cccc(F)c1)[O][Sn]([CH2]C)([CH2]C)[O]C(=O)c1cccc(F)c1 | > 5.89 µM | > 5.89 µM | 
O=C(O)C1=C(C(=O)O)N(c2ccncc2)C(c2ccco2)=CC1c1ccccc1[N+](=O)[O-] (configuration not stated) | > 200 µM | 2.24 µM | 
COC(=O)C(Cc1ccc(Oc2cc(CC(NC(=O)c3ccccc3)C(=O)OC)ccc2OC)cc1)NC(=O)c1ccccc1 (configuration not stated) | > 200 µM | 16.6 µM | 
COc1cccc(-c2nc(-c3cnccn3)n(C3OC(CO)C(O)C3O)n2)c1 (configuration not stated) | > 200 µM | > 200 µM | 
